This passage reports Km results from article PMC4879640 (Frontiers in Microbiology, 2016).

This experiment has as its system T1, H6-PnpA (PNP 4-monooxygenase).
T1 construct: N-terminal His6 tag, pET-28a (NdeI-XhoI), E. coli Rosetta(DE3)pLysS; gene pnpA of the pnpABA1CDEF cluster (not pnpA1)
It is filed as biochemical, Burkholderia sp. SJ98. To be noted: read-out: apparent Km.

For the molecule `Cc1cc(O)ccc1[N+](=O)[O-]` [3-methyl-4-nitrophenol], the Km (usually the concentration of substrate that gives half-maximal velocity) came to 20.3 ± 2.54 µM.
